The text below walks through data of patent publication US20200157088A1, “BENZENE FUSED HETEROCYCLIC COMPOUND AND USE THEREOF” (TAIWANJ PHARMACEUTICALS CO., LTD., priority 2017, published 2020).

Molecules are shown by their SMILES.

One assay deals with T1, autotaxin (Homo sapiens, UniProt Q13822).
T1 construct: purchased Cayman 10803
Description: Autotaxin inhibitor screening assay (choline release from LPC). The class given is biochemical.
Conditions: not given
On the procedure: Autotaxin activity was measured by choline release from LPC in presence or absence of compound.
Twenty (20) ng autotaxin (10803, Cayman, MI, USA) was incubated with 100 μM 14:0 LPC (855575P, Avanti, AL, USA) in a final volume of 100 μL buffer containing 50 mM Tris pH 8.0, 0.01% Triton X-100, 50 mM CaCl2, 1 unit/ml choline oxidase, 2 unit/ml HRP, 2 mM homovanilic acid (HVA). The relative amount of released choline was measured by HVA fluorescence in a 96-well plate. Fluorescent intensity was determined at λex/λem=320/450 nm every 60 seconds for 90 minutes with a SpectraMax i3 (Molecular Devices, CA, USA). Data analysis was performed using GraphPad Prism (GraphPad, La Jolla Calif., USA).
Inhibition %=[1−SlopeTA−SlopeBlank)/(Slopevehicle−SlopeBlank)]×100%
For orientation: inhibition means the change of the read-out against control, counted positive when it falls. Consider `CN(C(=O)OCc1cc(Cl)cc(Cl)c1)C1CCc2ccc(C3=CCN(CC(=O)N4CCC(=O)CC4)CC3)cc21` (centres unmarked) [Compound 11], for which the inhibition at 1 µM lay within 50 to 80%.
Consider `CN(c1nc(-c2ccccc2)cs1)C1CCc2ccc(N3CCN(CC(=O)N4CC(O)C4)CC3)cc21` (centres unmarked) [Compound 44], for which the inhibition at 1 µM was below 50%.
The same measure, in the same setting: to `CN(c1nc(-c2ccc(Cl)cc2)c(C#N)s1)C1CCCc2ccc(N3CCN(CC(=O)N4CC(O)C4)CC3)cc21` (centres unmarked) [Compound 51] belongs below 50%.

Still in this assay, the particulars now being: inhibition of autotaxin enzyme activity at 1 μM compound; 100 μM 14:0 LPC; read-out: Inhibition.
On to `CN(C(=O)OCc1cc(Cl)cc(Cl)c1)C1CCc2ccc(C3=CCN(CC(=O)N4CC(O)C4)CC3)cc21` (centres unmarked) [Compound 8, 3,5-dichlorobenzyl(6-(1-(2-(3-hydroxyazetidin-1-yl)-2-oxoethyl)-1,2,3,6-tetrahydropyridin-4-yl)-2,3-dihydro-1H-inden-1-yl)(methyl)carbamate], for which the inhibition at 1 µM was in the range of 50 to 80%.
Turning to `CN(C(=O)OCc1cc(Cl)cc(Cl)c1)C1CCc2ccc(C3=CCN(C(=O)CN4C(=O)CSC4=S)CC3)cc21` (centres unmarked) [Compound 9, 3,5-dichlorobenzyl methyl(6-(1-(2-(4-oxo-2-thioxothiazolidin-3-yl)acetyl)-1,2,3,6-tetrahydropyridin-4-yl)-2,3-dihydro-1H-inden-1-yl)carbamate], the inhibition at 1 µM is above 80%.
As to `CN(C(=O)OCc1cc(Cl)cc(Cl)c1)C1CCc2ccc(C3=CCN(CC(=O)N4CCOCC4)CC3)cc21` (centres unmarked) [Compound 10], the inhibition at 1 µM was 50 to 80%.
Turning to `CN(C(=O)OCc1cc(Cl)cc(Cl)c1)C1CCc2ccc(C3=CCN(CC(=O)N4CC[C@@H](O)C4)CC3)cc21` (some centres unmarked) [Compound 12], the inhibition at 1 µM lay within 50 to 80%.
Turning to `CN(C(=O)OCc1cc(Cl)cc(Cl)c1)C1CCc2ccc(C3=CCN(CC(=O)N4CCCC4)CC3)cc21` (centres unmarked) [Compound 13], the inhibition at 1 µM is below 50%.
On to `CCN(CC)C(=O)CN1CC=C(c2ccc3c(c2)C(N(C)C(=O)OCc2cc(Cl)cc(Cl)c2)CC3)CC1` (centres unmarked) [Compound 14], for which the inhibition at 1 µM is below 50%.
Still for that read-out and setting: to `CCOC(=O)N1CCN(C(=O)CN2CC=C(c3ccc4c(c3)C(N(C)C(=O)OCc3cc(Cl)cc(Cl)c3)CC4)CC2)CC1` (centres unmarked) [Compound 15] belongs below 50%.
As for `CN(C(=O)OCc1cc(Cl)cc(Cl)c1)C1CCc2ccc(C3=CCN(CC(=O)N4CCS(=O)(=O)CC4)CC3)cc21` (centres unmarked) [Compound 16], the inhibition at 1 µM fell in the range of 50 to 80%.
Same read-out and setting: to `CN(C(=O)OCc1cc(Cl)cc(Cl)c1)C1CCc2ccc(C3=CCN(CC(=O)N4CCN(S(C)(=O)=O)CC4)CC3)cc21` (centres unmarked) [Compound 17] belongs 50 to 80%.
The same measure, in the same setting: to `CN(C(=O)OCc1cc(Cl)cc(Cl)c1)C1CCc2ccc(C3=CCN(C(=O)CN4CCOCC4)CC3)cc21` (centres unmarked) [Compound 18] belongs above 80%; to `CN(C(=O)OCc1cc(Cl)cc(Cl)c1)C1CCc2ccc(C3=CCN(CC(=O)N4CCCC(O)C4)CC3)cc21` (centres unmarked) [Compound 19], below 50%; to `CN(C(=O)OCc1cc(Cl)cc(Cl)c1)C1CCc2ccc(C3=CCN(CC(=O)NS(C)(=O)=O)CC3)cc21` (centres unmarked) [Compound 20], 50 to 80%.
On to `CN(C(=O)OCc1cc(Cl)cc(Cl)c1)C1CCc2ccc(C3=CCN(CC(=O)N(C)S(C)(=O)=O)CC3)cc21` (centres unmarked) [Compound 21], for which the inhibition at 1 µM lay in the range of 50 to 80%.
On the same count and under the same terms, to `CN(C(=O)OCc1cc(Cl)cc(Cl)c1)C1CCc2ccc(C3=CCN(C(=O)CS(C)(=O)=O)CC3)cc21` (centres unmarked) [Compound 22] belongs above 80%; to `CN(C(=O)OCc1cc(Cl)cc(Cl)c1)C1CCc2ccc(C3=CCN(C(=O)C(=O)N4CCOCC4)CC3)cc21` (centres unmarked) [Compound 23], 50 to 80%; to `CN(C(=O)OCc1cc(Cl)cc(Cl)c1)C1CCc2ccc(C3=CCN(C(=O)CN4CC(O)C4)CC3)cc21` (centres unmarked) [Compound 24], below 50%.
On the same count and under the same terms, to `CN(C(=O)OCc1cc(Cl)cc(Cl)c1)C1CCc2ccc(C3=CCN(C(=O)CN4CCN(S(C)(=O)=O)CC4)CC3)cc21` (centres unmarked) [Compound 25] belongs above 80%.
On the same count and under the same terms, to `CN(C(=O)OCc1cc(Cl)cc(Cl)c1)C1CCc2ccc(C3=CCN(C(=O)CN4C(=O)CCC4=O)CC3)cc21` (centres unmarked) [Compound 26] belongs below 50%; to `CN(C(=O)OCc1cc(Cl)cc(Cl)c1)C1CCc2ccc(C3=CCN(C(=O)CN4C(=O)C=CC4=O)CC3)cc21` (centres unmarked) [Compound 27], above 80%; to `CN(C(=O)OCc1cc(Cl)cc(Cl)c1)C1CCc2ccc(C3=CCN(C(=O)CCN4C(=O)CSC4=S)CC3)cc21` (centres unmarked) [Compound 28], 50 to 80%.
As for `CN(C(=O)OCc1cc(Cl)cc(Cl)c1)C1CCc2ccc(C3=CCN(C(=O)CNS(C)(=O)=O)CC3)cc21` (centres unmarked) [Compound 29], the inhibition at 1 µM was above 80%.
On the same count and under the same terms, to `CN(C(=O)OCc1cc(Cl)cc(Cl)c1)C1CCc2ccc(C3=CCN(C(=O)CN(C)S(C)(=O)=O)CC3)cc21` (centres unmarked) [Compound 30] belongs above 80%; to `CN(C(=O)OCc1cc(Cl)cc(Cl)c1)C1CCc2ccc(N3CCN(CC(=O)N4CC(O)C4)CC3)cc21` (centres unmarked) [Compound 33, 3,5-dichlorobenzyl (6-(4-(2-(3-hydroxyazetidin-1-yl)-2-oxoethyl)piperazin-1-yl)-2,3-dihydro-1H-inden-1-yl)(methyl)carbamate], 50 to 80%.
For `CN(C(=O)OCc1cc(Cl)cc(Cl)c1)C1CCc2ccc(N3CCN(C(=O)CN4CCOCC4)CC3)cc21` (centres unmarked) [Compound 34, 3,5-dichlorobenzyl methyl(6-(4-(2-morpholinoacetyl)piperazin-1-yl)-2,3-dihydro-1H-inden-1-yl)carbamate], the inhibition at 1 µM was in the range of 50 to 80%.
As for `CN(C(=O)OCc1cc(Cl)cc(Cl)c1)C1CCc2ccc(N3CCN(C(=O)CN4C(=O)CSC4=S)CC3)cc21` (centres unmarked) [Compound 36], the inhibition at 1 µM was above 80%.
`CN(C(=O)OCc1cc(Cl)cc(Cl)c1)C1CCc2ccc(N3CCN(C(=O)CS(C)(=O)=O)CC3)cc21` (centres unmarked) [Compound 37]: the inhibition at 1 µM was 50 to 80%.
Regarding `CN(C(=O)OCc1cc(Cl)cc(Cl)c1)C1CCCc2ccc(N3CCN(CC(=O)N4CC(O)C4)CC3)cc21` (centres unmarked) [Compound 38], the inhibition at 1 µM is below 50%.
Still for that read-out and setting: to `CN(c1nc(-c2ccc(F)cc2)cs1)C1CCc2ccc(N3CCN(CC(=O)N4CC(O)C4)CC3)cc21` (centres unmarked) [Compound 43, 2-(4-(3-((4-(4-fluorophenyl)thiazol-2-yl)(methyl)amino)-2,3-dihydro-1H-inden-5-yl)piperazin-1-yl)-1-(3-hydroxyazetidin-1-yl)ethan-1-one] belongs below 50%; to `CN(c1nc(-c2ccc(F)cc2)c(C#N)s1)C1CCc2ccc(N3CCN(CC(=O)N4CC(O)C4)CC3)cc21` (centres unmarked) [Compound 50, 4-(4-fluorophenyl)-2-((6-(4-(2-(3-hydroxyazetidin-1-yl)-2-oxoethyl)piperazin-1-yl)-2,3-dihydro-1H-inden-1-yl)(methyl)amino)thiazole-5-carbonitrile], below 50%.
On the same count and under the same terms, to `CN(c1nc(-c2ccc(Cl)cc2)c(C#N)s1)C1CCc2ccc(N3CCN(CC(=O)N4CC(O)C4)CC3)cc21` (centres unmarked) [Compound 52] belongs below 50%.
Regarding `CN(c1nc(-c2ccc(F)cc2)c(C#N)s1)C1CCCc2ccc(N3CCN(CC(=O)N4CC(O)C4)CC3)cc21` (centres unmarked) [Compound 53], the inhibition at 1 µM was below 50%.
The same measure, in the same setting: to `CN(c1nc(-c2ccc(Cl)cc2)c(C#N)s1)C1CCc2ccc(N3CCN(C(=O)CN4C(=O)CSC4=S)CC3)cc21` (centres unmarked) [Compound 54] belongs below 50%; to `CN(c1nc(-c2ccc(Cl)cc2)c(C#N)s1)C1CCc2ccc(C3=CCN(CC(=O)N4CC(O)C4)CC3)cc21` (centres unmarked) [Compound 58, 4-(4-chlorophenyl)-2-((6-(1-(2-(3-hydroxyazetidin-1-yl)-2-oxoethyl)-1,2,3,6-tetrahydropyridin-4-yl)-2,3-dihydro-1H-inden-1-yl)(methyl)amino)thiazole-5-carbonitrile], below 50%.
Regarding `CN(c1nc(-c2cc(Cl)cc(Cl)c2)c(C#N)s1)C1CCc2ccc(C3=CCN(CC(=O)N4CC(O)C4)CC3)cc21` (centres unmarked) [Compound 59], the inhibition at 1 µM is below 50%.
Same read-out and setting: to `CCC1Cc2ccc(C3=CCN(CC(=O)N4CC(O)C4)CC3)cc2C1N(C)c1nc(-c2ccc(Cl)cc2)c(C#N)s1` (centres unmarked) [Compound 60] belongs below 50%; to `CCC1Cc2ccc(C3=CCN(CC(=O)N4CC(O)C4)CC3)cc2C1N(C)c1nc(-c2cc(Cl)cc(Cl)c2)c(C#N)s1` (centres unmarked) [Compound 61], below 50%; to `CN(C(=O)OCc1cc(Cl)cc(Cl)c1)c1coc2ccc(N3CCN(C(=O)CN4C(=O)CSC4=S)CC3)cc12` [Compound 66, 3,5-dichlorobenzyl methyl(5-(4-(2-(4-oxo-2-thioxothiazolidin-3-yl)acetyl)piperazin-1-yl)benzofuran-3-yl)carbamate], above 80%.
Still for that read-out and setting: to `CN(C(=O)OCc1cc(Cl)cc(Cl)c1)c1coc2ccc(C3=CCN(C(=O)CN4C(=O)CSC4=S)CC3)cc12` [Compound 69, 3,5-dichlorobenzyl methyl(5-(1-(2-(4-oxo-2-thioxothiazolidin-3-yl)acetyl)-1,2,3,6-tetrahydropyridin-4-yl)benzofuran-3-yl)carbamate] belongs above 80%; to `CN(CCOc1ccc(F)cc1F)C1CCc2ccc(N3CCN(CC(=O)N4CC(O)C4)CC3)cc21` (centres unmarked) [Compound 73], below 50%.
Regarding `CN(CCOc1ccc(F)cc1F)C1CCCc2ccc(N3CCN(CC(=O)N4CC(O)C4)CC3)cc21` (centres unmarked) [Compound 74], the inhibition at 1 µM is below 50%.
Still for that read-out and setting: to `N#Cc1cn(Cc2coc3ccc(C4=CCN(CC(=O)N5CC(O)C5)CC4)cc23)nc1-c1ccc(Cl)cc1` [Compound 82, 3-(4-chlorophenyl)-1-((5-(1-(2-(3-hydroxyazetidin-1-yl)-2-oxoethyl)-1,2,3,6-tetrahydropyridin-4-yl)benzofuran-3-yl)methyl)-1H-pyrazole-4-carbonitrile] belongs below 50%.
